According to ChEMBL document CHEMBL1138846, “Synthesis of C2-C3'N-linked macrocyclic taxoids. Novel docetaxel analogues with high tubulin activity” (J Med Chem, 2004):
Activity calls are given as the source filed them. The calls are words filed in the database; no cut-off is given here.

Assays:
[1] = test system: MCF7; experiment: Concentration required for inhibition of 50% human breast MCF 7 cell line proliferation after 72 hr of incubation; assay type: functional, cell-based; conditions: MCF7, 72 h
[2] = test system: HCT-116; experiment: Concentration required for inhibition of 50% human colon HCT 116 cell line proliferation after 72 hr of incubation; assay type: functional, cell-based; conditions: HCT-116, 72 h
[3] = Ratio of inhibitory concentration of compound against microtubule disassembly to that of inhibitory concentration of paclitaxel; assay type: functional
[4] = test system: KB; experiment: Concentration required for inhibition of 50% human […] KB cell line proliferation after 72 hr of incubation; assay type: functional, cell-based
[5] = Ratio of inhibitory concentration of compound against microtubule disassembly to that of inhibitory concentration of paclitaxel; Inactive; assay type: functional
[6] = Concentration required to inhibit 50% of rate of microtubule disassembly; assay type: functional

Row | Compound | IC50 [1] [nM] | IC50 [2] [nM] | IC50 [6] [nM] | Ratio [3] | IC50 [4] [nM] | Ratio [5]
1 | C=CCCCCC(=O)N[C@@H](c1ccccc1)[C@@H](O)C(=O)O[C@H]1C[C@@]2(O)[C@@H](OC(=O)c3cccc(CC=C)c3)C3[C@](C)(C(=O)[C@H](O)C(=C1C)C2(C)C)[C@@H](O)C[C@H]1OC[C@@]31OC(C)=O (stereo partly drawn) | – | – | – | 1 | 10 | –
2 | CC(=O)O[C@@]12CO[C@@H]1C[C@H](O)[C@@]1(C)C(=O)[C@H](O)C3=C(C)[C@@H]4C[C@@](O)([C@@H](OC(=O)c5ccc(cc5)C/C=C/CCCC(=O)N[C@@H](c5ccccc5)[C@@H](O)C(=O)O4)C12)C3(C)C (stereo partly drawn) | – | – | – | – | 1600 | inactive
3 | CC(=O)O[C@H]1C(=O)[C@@]2(C)[C@H]([C@H](OC(=O)c3ccccc3)[C@]3(O)C[C@H](OC(=O)[C@H](O)[C@@H](NC(=O)c4ccccc4)c4ccccc4)C(C)=C1C3(C)C)[C@]1(OC(C)=O)CO[C@@H]1C[C@@H]2O [PACLITAXEL] | – | – | 1000 | – | – | –
4 | CC(=O)O[C@@]12CO[C@@H]1C[C@H](O)[C@@]1(C)C(=O)[C@H](O)C3=C(C)[C@@H]4C[C@@](O)([C@@H](OC(=O)c5ccc(cc5)C/C=C\CCCCC(=O)N[C@@H](c5ccccc5)[C@@H](O)C(=O)O4)C12)C3(C)C (stereo partly drawn) | – | – | – | – | 280 | inactive
5 | C=CCCCCC(=O)N[C@@H](c1ccccc1)[C@@H](O)C(=O)O[C@H]1C[C@@]2(O)[C@@H](OC(=O)c3ccc(CC=C)cc3)C3[C@](C)(C(=O)[C@H](O)C(=C1C)C2(C)C)[C@@H](O)C[C@H]1OC[C@@]31OC(C)=O (stereo partly drawn) | – | – | – | – | 40 | inactive
6 | CC(=O)O[C@@]12CO[C@@H]1C[C@H](O)[C@@]1(C)C(=O)[C@H](O)C3=C(C)[C@@H]4C[C@@](O)([C@@H](OC(=O)c5cccc(c5)C/C=C\CCCCC(=O)N[C@@H](c5ccccc5)[C@@H](O)C(=O)O4)C12)C3(C)C (stereo partly drawn) | > 10000 | 8000 | – | 1.4 | 200 | –
7 | CC(=O)O[C@@]12CO[C@@H]1C[C@H](O)[C@@]1(C)C(=O)[C@H](O)C3=C(C)[C@@H]4C[C@@](O)([C@@H](OC(=O)c5cccc(c5)C/C=C/CCCCC(=O)N[C@@H](c5ccccc5)[C@@H](O)C(=O)O4)C12)C3(C)C (stereo partly drawn) | 350 | 700 | – | 1 | 70 | –

Continued, in another order:

Row | IC50 [1] [nM] | IC50 [2] [nM] | IC50 [6] [nM] | Compound | Ratio [3] | IC50 [4] [nM] | Ratio [5]
8 | > 10000 | > 10000 | – | CC(=O)O[C@@]12CO[C@@H]1C[C@H](O)[C@@]1(C)C(=O)[C@H](O)C3=C(C)[C@@H]4C[C@@](O)([C@@H](OC(=O)CCCC/C=C\CCCCC(=O)N[C@@H](c5ccccc5)[C@@H](O)C(=O)O4)C12)C3(C)C (stereo partly drawn) | 7.3 | 8000 | –
9 | 2100 | 2400 | – | CC(=O)O[C@@]12CO[C@@H]1C[C@H](O)[C@@]1(C)C(=O)[C@H](O)C3=C(C)[C@@H]4C[C@@](O)([C@@H](OC(=O)c5ccccc5C/C=C/CCCCC(=O)N[C@@H](c5ccccc5)[C@@H](O)C(=O)O4)C12)C3(C)C (stereo partly drawn) | 6 | 700 | –
10 | 9 | 10 | – | C=CCCCCC(=O)N[C@@H](c1ccccc1)[C@@H](O)C(=O)O[C@H]1C[C@@]2(O)[C@@H](OC(=O)c3ccccc3CC=C)C3[C@](C)(C(=O)[C@H](O)C(=C1C)C2(C)C)[C@@H](O)C[C@H]1OC[C@@]31OC(C)=O (stereo partly drawn) | 1.2 | 3.2 | –
11 | 1 | 2.2 | – | CC(=O)O[C@@]12CO[C@@H]1C[C@H](O)[C@@]1(C)C(=O)[C@H](O)C3=C(C)[C@@H](OC(=O)[C@H](O)[C@@H](NC(=O)OC(C)(C)C)c4ccccc4)C[C@@](O)([C@@H](OC(=O)c4ccccc4)[C@H]21)C3(C)C [DOCETAXEL] | 0.5 | 0.3 | –
